The source of these data is patent US8901305B2, “Aryl lactam kinase inhibitors” (Bristol-Myers Squibb Company, priority 2012, dated 2014).

Usually IC50 stands for the point on the concentration scale where inhibition reaches its midpoint.

Experiment [1] deals with formalin paw test in mice. Nature of the experiment: formalin paw test (pain response). It is filed as in vivo. The method, then: AAK1 homozygous (−/−) and their wild-type (+/+) littermates were tested using the formalin paw test in order to assess their acute and tonic nociceptive responses. For these tests, Automatic Nociception Analyzers (purchased from the Ozaki lab at University of California, San Diego) were used. A metal band was placed around the left hind paw of each mouse 30 minutes prior to testing. After the 30-minute acclimation period, 20 μl of 5% formalin is subcutaneously injected in the dorsal surface of the left hind paw. Mice were individually housed in cylindrical chambers for 45 minutes. Fresh 5% formalin solution was prepared by diluting formaldehyde (Formalde-fresh 20%, Fisher Scientific, Fair Lawn, N.J.) with distilled water. Investigatory compounds were administered 30 minutes prior to formalin injection.
A computer recorded flinches per minute, total flinches for phase I (acute phase=first 8 minutes), and total flinches for phase II (tonic phase=time between minutes 20-40) through an electromagnetic field. See Yaksh T L, Ozaki G, McCumber D, Rathbun M, Svensson C, Malkmus S, Yaksh M C. An automated flinch detecting system for use in the formalin nociceptive bioassay. J Appl Physiol., 2001; 90:2386-402.
The same test was used to confirm that the administration of an AAK1 inhibitor can also affect pain response.
A compound of the disclosure was tested in this assay at different doses. Gabapentin and pregabalin were used as positive controls. Results are shown below in Table 2, wherein the effect of gabapentin at 200 mg/kg is considered a 100% response, the % response for the other compounds is relative to the 200 mg/kg dose of gabapentin, “sc” means subcutaneous administration; “po” means oral administration.

Another experiment has as its target T1, GST-Xa-hAAK1 (Homo sapiens, UniProt Q2M2I8).
T1 construct: made in house
The experiment can be described thus: AAK1 kinase assay. It counts as biochemical. To be noted: ATP 22 μM, 3 hours at room temperature. A digest of the protocol:
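Bacterially expressed GST-Xa-hAAK1 was combined with substrates and compounds (eleven concentrations) and incubated 3 h at room temperature, then stopped with EDTA. Fluorescent substrate and phosphorylated product were separated electrophoretically (Caliper LabChip), and IC50 values came from non-linear regression.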

For experiment [2], the target named is T2, AAK1 (full length human) with AP2M1 in HEK293F cells (Homo sapiens, UniProt Q2M2I8).
T2 construct: expressed in transfected cells; host or cells: HEK293F
T2 sequence (Q2M2I8 whole entry): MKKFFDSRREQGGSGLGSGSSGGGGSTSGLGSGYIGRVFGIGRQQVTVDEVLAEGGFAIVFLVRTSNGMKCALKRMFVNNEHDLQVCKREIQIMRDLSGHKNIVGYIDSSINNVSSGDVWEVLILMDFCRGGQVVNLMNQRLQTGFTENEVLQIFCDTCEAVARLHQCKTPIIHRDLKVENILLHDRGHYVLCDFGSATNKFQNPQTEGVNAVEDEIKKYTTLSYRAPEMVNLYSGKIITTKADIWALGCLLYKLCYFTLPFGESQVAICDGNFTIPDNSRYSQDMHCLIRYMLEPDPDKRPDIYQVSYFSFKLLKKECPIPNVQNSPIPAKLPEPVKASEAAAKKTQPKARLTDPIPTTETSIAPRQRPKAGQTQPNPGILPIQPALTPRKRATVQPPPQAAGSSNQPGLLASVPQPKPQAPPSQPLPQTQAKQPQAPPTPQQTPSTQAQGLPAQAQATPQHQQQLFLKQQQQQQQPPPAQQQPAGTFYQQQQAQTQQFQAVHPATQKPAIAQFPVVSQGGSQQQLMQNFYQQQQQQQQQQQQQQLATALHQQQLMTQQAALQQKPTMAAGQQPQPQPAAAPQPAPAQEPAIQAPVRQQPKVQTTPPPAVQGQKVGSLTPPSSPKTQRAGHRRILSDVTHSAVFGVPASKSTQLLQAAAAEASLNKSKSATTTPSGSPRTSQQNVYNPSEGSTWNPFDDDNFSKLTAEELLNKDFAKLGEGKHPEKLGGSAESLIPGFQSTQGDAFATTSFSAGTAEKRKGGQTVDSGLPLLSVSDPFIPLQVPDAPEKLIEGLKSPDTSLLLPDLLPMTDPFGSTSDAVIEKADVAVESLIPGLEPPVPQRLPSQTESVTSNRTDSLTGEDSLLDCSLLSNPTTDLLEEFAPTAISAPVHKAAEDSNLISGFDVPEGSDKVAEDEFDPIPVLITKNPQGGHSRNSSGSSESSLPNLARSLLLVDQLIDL
The experiment can be described thus: HEK281 cell-based assay (phospho-mu2 Western blot in transfected HEK293F cells). Conditions: 3 hours, inhibition of mu2 phosphorylation. The protocol:
HEK293F cells were cultured in media containing DMEM (Gibco, cat. #11965), 10% FBS (SAFC Biosciences, cat. #12103C), 1×GPS (glutamine, penicillin and streptomycin). On day one, cells were plated on a 10 cm dish so that they are ˜80% confluent at time of transfection. Roughly 12 million cells were in a 10 cm dish at time of transfection. On day two, each dish was transfected with 48 ug DNA and 144 ul Lipofectamine 2000 (Invitrogen, cat. #11668-019). The DNA was comprised of a mixture (per 10 cm dish) containing 3 ug AAK1/HA/pIRES (full length human, NCBI accession no. NP_055726.2), 45 μg Flag/AP2MI/pcDNA (full length human), and 1.5 ml OPTI-MEM. The Lipofectamine 2000 is made up of a mixture (per 10 cm dish) containing 144 μl Lipofectamine 2000 and 1.5 ml OPTI-MEM. Each mixture was transferred to individual 15 ml tubes and incubated at RT for 5 minutes, and then the two mixes were combined and incubated at RT for 20 minutes. Growth media was then aspirated from each 10 cm plate and replaced with 10 ml of DMEM+10% FBS (no GPS). Finally, 3 ml DNA/Lipofectamine mix was added to each 10 cm dish and mix gently followed by incubate of plate overnight at 37° C. and 5% CO2.
On day three, compounds were diluted in 100% DMSO at 1000× final concentration, followed by 3-fold serial dilutions for a total of 5 concentrations tested. Four compounds were tested per 10 cm dish. One ul of each compound dilution was then pipetted into a deep-well, 96-well plate, followed by addition of 500 μl DMEM+0.5% FBS into each well for a 2× final concentration of each compound. Cells were resuspended in a 10 cm dish by simple pipetting (HEK293 cells come off the plate that easy at this point) and then transferred to a 50 ml conical tube and pelleted by centrifugation at 1000 rpm for 5 min. Cell pellets were then resuspended in 2.75 ml DMEM+0.5% FBS per 10 cm dish and 100 μl of cell suspension transferred into each well of 96-well TC plate. Finally, 100 μl of 2× compound diluted in DMEM+0.5% FBS was then added into wells containing cell suspension for a 1× final concentration. Plates were then incubated at 37° C. and 5% CO2 for 3 hours followed by transferring of cell suspensions from each well into 12-tube PCR strips. The PCR strips were spun in a tip rack at 1000 rpm for 5 minutes to pellet cells and media was then removed by pipetting without disturbing the cell pellet.
To prepare for Western Blot analysis, cell pellets were resuspend in 40 ul 1×LDS-PAGE sample buffer (Invitrogen, cat. # NP0008)+2× Halt phosphatase and protease inhibitor cocktail (Thermo Scientific, cat. #1861284), followed by sonicating each with microtip sonicator set at 5 for 8-10 seconds. Five ul of 10× NuPage Sample Reducing Agent (with […]) was to each sample followed by heat denaturing at 70 C for 10 min on PCR machine. A total of 10 μl per sample was loaded into each lane of a 4-20% Tris-Glycine Criterion 26-well gel (Biorad, cat. #345-0034) for the phospho-mu2 blot and 10 μl per lane in a 4-12% Bis-Tris (+MES buffer) NuPAGE 26-well gel (Invitrogen, cat. # WG1403BX10) for the mu2 blot. For controls, 2 ng of phospho-mu2 or 20 ng mu2/Flag proteins were loaded in the last well of each gel. After SDS-PAGE, samples on each gel were transferred to PVDF membrane using an iBlot and membranes were blocked for one hour in TBST+5% milk, followed by wash 3× for 5-10 min with TBST. Criterion gels were probed with rabbit anti-phospho-mu2 (1:5000; a rabbit polyclonal antibody produced by New England Peptide and affinity purified at Lexicon) in TBST+5% BSA, whereas, NuPAGE gels were probed with mouse anti-Flag (1:500; Sigma, cat. # F1804) in TBST+5% milk, and these primary antibodies were incubated overnight at 4° C. on a rocker. […]

[3] abbreviates: 50 mg/kg sc, relative to gabapentin 200 mg/kg = 100%.

T1 sequence (Q2M2I8 whole entry): as above

`NCC1(CC(=O)O)CCCCC1` [Gabapentin, gabapentin]: the Response in experiment [1] (setting [3]) was found to be 60%; in experiment [1] (200 mg/kg sc, considered a 100% response), 100%.

Turning to `Cc1nccc2c1c(=O)n(C)c1cc(OC[C@H](N)CC(C)C)c(C#N)cc21` [Example 78, (R)-8-(2-amino-4-methylpentyloxy)-4,6-dimethyl-5-oxo-5,6-dihydrobenzo[c][2,7]naphthyridine-9-carbonitrile], the results for the half-inhibitory concentration (IC50) (at GST-Xa-hAAK1; in experiment [2] (given as IC50 range)) were 0.8 nM and 1 to 10 nM, respectively.

In the case of `Cc1nccc2c1c(=O)n(C)c1cc(OC[C@@H](N)CC(C)C)c(Cl)cc21` [Example 62, (S)-8-((2-amino-4-methylpentyl)oxy)-9-chloro-4,6-dimethylbenzo[c][2,7]naphthyridin-5(6H)-one], the concentration for half-maximal inhibition (IC50) (at GST-Xa-hAAK1 (given as IC50 range); in experiment [2] (given as IC50 range)) was 1 to 10 nM throughout.

In the case of `Cc1nccc2c1c(=O)n(C)c1cc(OC[C@H](N)CC(C)C)c(Cl)cc21` [Example 20, (R)-8-((2-amino-4-methylpentyl)oxy)-9-chloro-4,6-dimethylbenzo[c][2,7]naphthyridin-5(6H)-one], the concentration for half-maximal inhibition (IC50) (at GST-Xa-hAAK1 (given as IC50 range); in experiment [2] (given as IC50 range)) was 1 to 10 nM each time.

With `CCc1cc2c3ccncc3c(=O)n(C)c2cc1OC[C@@H](N)CC(C)C` [Example 46, (S)-8-(2-amino-4-methylpentyloxy)-9-ethyl-6-methylbenzo[c][2,7]naphthyridin-5(6H)-one], the results for the IC50 (at GST-Xa-hAAK1 (given as IC50 range); in experiment [2]) were 1 to 10 nM and 3.1 nM, respectively.

For `Cc1nccc2c1c(=O)n(C)c1cc(OC[C@@H](N)CC3CCC3)c(Cl)cc21` [Example 24, (S)-8-(2-amino-3-cyclobutylpropoxy)-9-chloro-4,6-dimethylbenzo[c][2,7]naphthyridin-5(6H)-one], the IC50 (on GST-Xa-hAAK1 (given as IC50 range); in experiment [2] (given as IC50 range)) was 1 to 10 nM in each case.

For `Cc1cc2c3ccnc(C)c3c(=O)n(C)c2cc1OC[C@@H](N)CC1CC1` [Example 25, (S)-8-(2-amino-3-cyclopropylpropoxy)-4,6,9-trimethylbenzo[c][2,7]naphthyridin-5(6H)-one], the IC50 is 0.55 nM on GST-Xa-hAAK1 and 1 to 10 nM in experiment [2] (given as IC50 range).

In experiment [1] (setting [3]), `CC(C)C[C@H](CN)CC(=O)O` [Pregabalin, pregabalin] returned a Response of 90%.

Consider `Cc1nccc2c1c(=O)n(C)c1cc(OCC(N)CCC(F)(F)F)c(C#N)cc21` (stereo not drawn) [Example 73, 8-(2-amino-5,5,5-trifluoropentyloxy)-4,6-dimethyl-5-oxo-5,6-dihydrobenzo[c][2,7]naphthyridine-9-carbonitrile], for which the IC50 (at GST-Xa-hAAK1 (given as IC50 range); in experiment [2] (given as IC50 range)) was 1 to 10 nM each time.

On to `Cc1cc2c3ccnc(C)c3c(=O)n(C)c2cc1OC[C@@H](N)CC1CCC1` [Example 26, (S)-8-(2-amino-3-cyclobutylpropoxy)-4,6,9-trimethylbenzo[c][2,7]naphthyridin-5(6H)-one], for which the half-inhibitory concentration (IC50) is 2.9 nM at GST-Xa-hAAK1 and 1 to 10 nM in experiment [2] (given as IC50 range).

With `CC(C)C[C@H](N)COc1ccc2c3ccnc(N)c3c(=O)n(C)c2c1` [Example 17, (S)-4-amino-8-(2-amino-4-methylpentyloxy)-6-methylbenzo[c][2,7]naphthyridin-5(6H)-one], the half-maximal inhibitory concentration (IC50) on GST-Xa-hAAK1 is 3 nM; in experiment [2] (given as IC50 range) it was 1 to 10 nM.
